Measured values as given in patent publication US20110301239A1, “USE OF NOVEL LIPID MEDIATORS TO INHIBIT ANGIOGENESIS” (The Brigham and Women's Hospital, Inc., priority 2008, published 2011).

Experiments:
[1] = system: neutrophils; experiment: Neutrophil infiltration in suture-inflamed corneas (anti-neutrophil NIMP-R14 staining of cross-sections); format: in vivo, BALB/c mice; conditions: for neutrophils in inflamed cornea: 100 ng/10 μl subconjunctival at 0 h and 48 h, mean±SEM, n=3; for inhibition of neutrophils recruitment into the inflamed corneas: at 24 and 72 h, compared to vehicle-treated group, p<0.05
Description: (§1) Six to eight-week-old male BALB/c (Taconic Farms, Germantown, N.Y.) mice were used in all experiments. All experimental protocols were approved by the Schepens Eye Research Institute Animal Care and Use Committee, and all animals were treated according to the Association for Research in Vision and Ophthalmology Statement for the Use of Animals in Ophthalmic and Vision Research.
(§2) The standard model for induction of inflammatory corneal NV is associated with development of intrastromal vessels in close association with a mixed-cell (primarily neutrophilic) infiltrate.^14,15 Three interrupted sutures (11-0 nylon, Sharpoint; Vanguard, Houston, Tex.) were placed intrastromally with two stromal incursions extending over 120° of the corneal circumference each to induce inflammatory corneal NV, which is also associated with significant LA, as described previously.^14 The corneas were followed by slit-lamp biomicroscopy for corneal NV development. NV was graded between 0 and 3, with increments of 0.5, using a grid system per each corneal quadrant based on the centripetal extent of the neovascular branches from the limbus. Scores for each quadrant then summed to derive the NV index (range 0 to 12) for each eye, as previously described.^14
(§3) BALB/c mice were randomized to receive RvD1, RvE1 or vehicle (normal saline) by subconjunctival injection in a masked fashion after suture or hydron pellet placement. The compounds were administered at a dose of 100 ng/10 μl per mouse every 48 h after suture or pellet placed. For these experiments, RvD1 and RvE1 were prepared by total organic synthesis as reported previously,^17,18 in the total organic synthesis core for NIH P-50 DE0169191. The physical properties were monitored routinely via LC/MS/MS matching the reported biological and physical properties prior to analysis in present experiments.
(§4) Full thickness corneal tissue or 8 μm-frozen sections were fixed in acetone for 15 minutes at room temperature. To block non-specific staining, anti-FcR mAb ([…], FcγIII/II receptor) or 10% goat serum was used before primary antibodies or isotype-matched control antibodies were applied at 4° C. overnight. Thereafter, samples were incubated with secondary antibodies at RT. Each step was followed by three thorough washings in PBS for 5-10 minutes. Finally, the samples were covered with mounting medium (Vector Laboratories, Burlingame, Calif.) and analyzed by epifluorescence microscopy (Eclipse E800; Nikon, Tokyo, Japan). The following antibodies were used: FITC-conjugated rat anti-mouse CD31 (Santa Cruz Biotechnology, Santa Cruz, Calif.), purified rat anti-mouse neutrophil (NIMP-R14, Abcam, Cambridge, Mass.), purified rat anti-mouse F4/80 (Novus Biologicals, Littleton, Colo.) and purified rabbit anti-mouse LYVE-1 (Abcam, Cambridge, Mass.). The secondary antibodies were Rodamine-conjugated donkey anti-rabbit IgG and Rodamine-conjugated goat anti-rat IgG (Santa Cruz Biotechnology, Santa Cruz, Calif.). Isotype controls included FITC-conjugated rat IgG2a, purified rat IgG2b, and purified rabbit IgG (Santa Cruz Biotechnology, Santa Cruz, Calif.).

[2] = system: IL-1β-induced corneal HA and LA; experiment: Corneal micropocket assay, IL-1β pellet; format: in vivo, BALB/c mice; conditions: day 7; for BV density: IL-1β micropellet, mean±SEM, n=4, vehicle 26.8±2.0%, significantly impaired; for reduction of LA: stimulated by IL-1β micropellet
Description: as §1
(§5) The corneal micropocket assay in mice and quantification of the resultant NV has been described previously.^16,17 In brief, 0.3 μl of hydron pellets (IFN Sciences, New Brunswick, N.J.) containing 30 ng of murine IL-1β (R&D Systems, Minneapolis, Minn.) or 200 ng of VEGF-A (gift from BRB Preclinical Repository, National Cancer Institute) were prepared and implanted into the corneal stroma of male BALB/c mice. After 7 days the animals were sacrificed and the corneas were harvested for quantitative analysis of HA and LA.
as §3
(§6) Full thickness corneal tissue or 8 μm-frozen sections were fixed in acetone for 15 minutes at room temperature. To block non-specific staining, anti-FcR mAb ([…], FcγIII/II receptor) or 10% goat serum was used before primary antibodies or isotype-matched control antibodies were applied at 4° C. overnight. Thereafter, samples were incubated with secondary antibodies at RT. Each step was followed by three thorough washings in PBS for 5-10 minutes. Finally, the samples were covered with mounting medium (Vector Laboratories, Burlingame, Calif.) and analyzed by epifluorescence microscopy (Eclipse E800; Nikon, Tokyo, Japan). […]
(§7) To quantify corneal angiogenesis, digital pictures of corneal flat-mounts were taken using an image analysis system (Spot Image Analysis, Diagnostic Instruments, Sterling Heights, Mich.). The areas covered by CD31^high/LYVE-1^−-vessels (blood vessels) or CD31^lowLYVE-1^high vessels (lymphatics) were measured morphometrically using NIH Image J software (version 1.34s; http://rsb.info.nih.gov/ij). […] The vessel density was calculated by the proportion of neovascularized area to the whole corneal area.

[3] = system: VEGF-D; experiment: Real-time PCR of VEGF-D mRNA in suture-inflamed corneas; format: in vivo, BALB/c mice; conditions: relative to vehicle-treated controls
Description: as §1, with “Research. […]” for “Research.”
(§8) BALB/c mice were randomized to receive RvD1, RvE1 or vehicle (normal saline) by subconjunctival injection in a masked fashion after suture or hydron pellet placement. […] The physical properties were monitored routinely via LC/MS/MS matching the reported biological and physical properties prior to analysis in present experiments. […]
(§9) A combined-method for total RNA isolation was employed, using Trizol (Invitrogen Corp., Carlsbad, Calif.) and RNeasy MinElute Spin Columns (Qiagen, Valencia, Calif.), as described previously.^21 Reverse transcription of total RNA was conducted using oligo(dT)20 primer and Superscript™ III Reverse Transcriptase (Invitrogen, Carlsbad, Calif.). […] The mean density of each band was measured by using NIH image J software. […]

[4] = system: VEGF-C; experiment: Real-time PCR of VEGF-C mRNA in suture-inflamed corneas; format: in vivo, BALB/c mice; conditions: 24 h and 72 h after suture placement, vs vehicle-treated group
Description: as §1, with “Research. […]” for “Research.”
as §8, §9

[5] = system: VEGFR-3; experiment: Real-time PCR of VEGFR-3 mRNA in suture-inflamed corneas; format: in vivo, BALB/c mice; conditions: relative to vehicle-treated controls
Description: as §1, with “Research. […]” for “Research.”
as §8, §9

[6] = system: VEGFR-2; experiment: Real-time PCR of VEGFR-2 mRNA in suture-inflamed corneas; format: in vivo, BALB/c mice; conditions: 24 h and 72 h after suture placement, vs vehicle-treated group
Description: as §1, with “Research. […]” for “Research.”
as §8, §9

[7] = system: suture-induced corneal NV; experiment: Suture-induced inflammatory corneal angiogenesis (slit-lamp NV score, CD31/LYVE-1 vessel density); format: in vivo, BALB/c mice; conditions: for angiogenic response (corneal neovessels by slit lamp biomicroscopy): 2-week time course, subconjunctival every 48 h, relative to vehicle control; for significant changes in the density of lymphatic vessels / BV density (CD31high/LYVE-1−): day 14 after suture placement; for significant changes in the density of lymphatic vessels: relative to vehicle controls; for BV density (CD31high/LYVE-1−): mean±SEM, n=6, vehicle 23.18±1.12%
Description: as §1, §2, §3, §4
To quantify corneal angiogenesis, digital pictures of corneal flat-mounts were taken using an image analysis system (Spot Image Analysis, Diagnostic Instruments, Sterling Heights, Mich.). The areas covered by CD31^high/LYVE-1^−-vessels (blood vessels) or CD31^lowLYVE-1^high vessels (lymphatics) were measured morphometrically using NIH Image J software (version 1.34s; http://rsb.info.nih.gov/ij). The total corneal area was outlined using the inner-most vessel of the limbal arcade as the border. The vessel density was calculated by the proportion of neovascularized area to the whole corneal area.

[8] = system: TNF-α; experiment: Real-time PCR of TNF-α mRNA in suture-inflamed corneas; format: in vivo, BALB/c mice; conditions: vs vehicle
Description: as §1, §2, §3
Corneas were carefully dissected to ensure that the conjunctival and iris tissues were not included. To extract mRNA from whole-thickness corneas, two corneas were pooled as a sample in each group. To extract mRNA from corneal epithelial and stroma-endothelial layers separately, intact corneas were placed in 30 μl of RNA stabilization reagent (RNAlater, Qiagen, Valencia, Calif.) at 4° C. overnight and then stored at −30° C. for 2-3 days. […]
as §9

[9] = system: IL-1α; experiment: Real-time PCR of IL-1α mRNA in suture-inflamed corneas; format: in vivo, BALB/c mice; conditions: 24 h and 72 h after suture placement, vs vehicle
Description: as §1, with “Research. […]” for “Research.”
as §8, §9

[10] = system: VEGF-A-induced corneal HA and LA; experiment: Corneal micropocket assay, VEGF-A pellet; format: in vivo, BALB/c mice; conditions: day 7; for BV density: VEGF-A micropellet, mean±SEM, n=4, vehicle 14.75±3.8%, not significantly lower; for reduction of LA: stimulated by VEGF-A micropellet
Description: as §1, §5, §3, §6, §7

[11] = system: macrophages; experiment: Macrophage infiltration in suture-inflamed corneas (anti-F4/80 staining of cross-sections); format: in vivo, BALB/c mice; conditions: 72 h after suture placement; 100 ng/10 μl subconjunctival; mean±SEM, n=3; vehicle 83±3
Description: as §1, with “Research. […]” for “Research.”
BALB/c mice were randomized to receive RvD1, RvE1 or vehicle (normal saline) by subconjunctival injection in a masked fashion after suture or hydron pellet placement. […] The physical properties were monitored routinely via LC/MS/MS matching the reported biological and physical properties prior to analysis in present experiments.
Full thickness corneal tissue or 8 μm-frozen sections were fixed in acetone for 15 minutes at room temperature. […] Finally, the samples were covered with mounting medium (Vector Laboratories, Burlingame, Calif.) and analyzed by epifluorescence microscopy (Eclipse E800; Nikon, Tokyo, Japan). […]

[12] = system: VEGF-A; experiment: Real-time PCR of VEGF-A mRNA in suture-inflamed corneas; format: in vivo, BALB/c mice; conditions: 24 h and 72 h after suture placement, vs vehicle-treated group
Description: as §1, with “Research. […]” for “Research.”
as §8, §9

[13] = system: PMN infiltration; experiment: Peritonitis model, PMN infiltration; format: in vivo
[14] = 24 h after suture placement, vehicle 81±6
[15] = 72 h after suture placement, vehicle 57±4

Structure (SMILES)	neutrophils in inflamed cornea [1, 14]	neutrophils in inflamed cornea [1, 15]	inhibition of neutrophils recruitment into the inflamed corneas [1]	BV density [2]	reduction of LA [2]	mRNA expression of VEGF-D [3]	mRNA expression of VEGF-C [4]	mRNA expression of VEGFR-3 [5]	mRNA expression of VEGFR-2 [6]	angiogenic response (corneal neovessels by slit lamp biomicroscopy) [7]	significant changes in the density of lymphatic vessels [7]	BV density (CD31high/LYVE-1−) [7]	increases in TNF-α expression (mRNA) ([8]; 24 h after suture placement)	increases in TNF-α expression (mRNA) ([8]; 72 h after suture placement)	expression of IL-1α (mRNA) [9]	BV density [10]	reduction of LA [10]	macrophage in inflamed cornea [11]	mRNA expression of VEGF-A [12]	other results
CC/C=C\C[C@H](O)/C=C/C=C\C=C\C=C\[C@@H](O)[C@@H](O)C/C=C\CCC(=O)O [RvD1, 7S,8R,17S-trihydroxy-4Z,9E,11E,13Z,15E,19Z-docosahexaenoic acid]	62±4 cells/section	40±3 cells/section	~30%	17.1±2.4%	no significant reduction	not significantly altered	lower mRNA expressions	not significantly altered	lower mRNA expressions	significant suppression	not observed	8.4±0.39%	significantly suppressed	not at 72 h	not significantly altered	10.9±2.3%	no significant reduction	57±4 cells/section	lower mRNA expressions	–
CCC(O)/C=C/C=C\C/C=C\C/C=C\C=C\[C@@H](O)CCCC(=O)O (mixture of isomers) [5S, 18 (+/−)-diHEPA]	–	–	–	–	–	–	–	–	–	–	–	–	–	–	–	–	–	–	–	anti-inflammatory activity, PMN infiltration [13]: downregulation of PMN infiltration; potency compared with Resolvin E1 ([13]; at an equal dose amount): equipotent to Resolvin E1
CC[C@@H](O)/C=C/C=C\C[C@@H](O)/C=C/C=C/C=C\[C@@H](O)CCCC(=O)O [RvE1, 5S,12R,18R-trihydroxy-6Z,8E,10E,14Z,16E-EPA]	52±4 cells/section	41±4 cells/section	~30%	18.6±2.2%	no significant reduction	not significantly altered	lower mRNA expressions	not significantly altered	lower mRNA expressions	significant suppression	not observed	10.92±0.53%	significantly suppressed	significant lowering	not significantly altered	14.1±2.2%	no significant reduction	49±7 cells/section	lower mRNA expressions	–
